We go through 1 substance from patent US9078851B2, “Composition for preventing or treating a spinal cord injury” (UNIVERSITY-INDUSTRY COOPERATION GROUP OF KYUNG HEE, priority 2009, dated 2015).

Format in all cases: in vivo, rat
The test system of experiment [1] is IL-10 expression in nerve cell. Put plainly: Immunofluorescence staining of IL-10 in nerve cells and microglia/macrophages after spinal cord injury. The note with it: tail vein injection; one day after spinal cord injury. As for the experimental part: (§1) For the present experiment, male white mice (Sprague-Dawley 240-250 g, 7 weeks, 10 mice) were under general anesthetics by an intraperitoneal injection of Ketamin (80 mg/kg, Yuhan Corporation) and Rompun (7.4 mg/kg, Bayer Korea Corporation). Laminectomy was performed at spine T9-10 level to expose a spinal cord keeping intact dura. And then, rat was put on Spinal cord dropping device (NYU); spine processes at T8 and T11 sites were fixed by using a clamp, respectively; then, a rod (diameter 2 mm, weight 10 g) was dropped from 25 mm height vertical to dorsal part of spinal cord followed by suturing injury site muscle and skin. The rat of Sham-operated control group was performed only laminectomy at same area without damaging spinal cord injury (marked by ‘sham” in figures; hereinafter, the same as above).
Substance P (marked by ‘SP’ in figures; hereinafter, the same as above) dissolved in saline of 5 nmol/kg concentration was injected through tail vein at immediately, 24 hours, and 48 hours after a spinal cord injury for experimental groups. At sham control group, same volume of saline (marked by ‘vehicle’ in figures; hereinafter, the same as above) without Substance P was injected at same time points. Operation were performed on an electric heating pad of 37° C., and then rat were transferred to cage after awake from the anesthetic. • (2) Preparation of Tissue […]

The subject of experiment [2] is TNF-α and IL-10 in peripheral blood. Put plainly: ELISA of cytokines in peripheral blood in spinal cord injury model. The note with it: 5 nmol/kg tail vein; serum at 1 hour, 6 hours, 1 day, 3 days, 5 days; vs control. Here is the method:
as §1, with “above). […]” for “above).”
At immediately, 1 d, 2 ds, in order to investigate an effect of Substance P in cytokine in a peripheral blood, Substance P (5 nmol/kg in saline) or saline (the same volume without Substance P) was injected through tail vein, respectively using the same method as (1) of Example 1. […] Finally, The levels of TNF-α and IL-10 were measured by using ELISA kit (R&D Systems).

Experiment [3] relates to spinal cord injury. The experiment can be described thus: Ethologic change test, BBB locomotor rating scale after spinal cord injury. As for the experimental part: For the present experiment, male white mice (Sprague-Dawley 240-250 g, 7 weeks, 10 mice) were under general anesthetics by an intraperitoneal injection of Ketamin (80 mg/kg, Yuhan Corporation) and Rompun (7.4 mg/kg, Bayer Korea Corporation). Laminectomy was performed at spine T9-10 level to expose a spinal cord keeping intact dura. And then, rat was put on Spinal cord dropping device (NYU); spine processes at T8 and T11 sites were fixed by using a clamp, respectively; then, a rod (diameter 2 mm, weight 10 g) was dropped from 25 mm height vertical to dorsal part of spinal cord followed by suturing injury site muscle and skin. The rat of Sham-operated control group was performed only laminectomy at same area without damaging spinal cord injury (marked by ‘sham” in figures; hereinafter, the same as above). Substance P (marked by ‘SP’ in figures; hereinafter, the same as above) dissolved in saline of 5 nmol/kg concentration was injected through tail vein at immediately, 24 hours, and 48 hours after a spinal cord injury for experimental groups. At sham control group, same volume of saline (marked by ‘vehicle’ in figures; hereinafter, the same as above) without Substance P was injected at same time points. Operation were performed on an electric heating pad of 37° C., and then rat were transferred to cage after awake from the anesthetic. • (2) Preparation of Tissue An ethologic change test was performed as follows: an experimental animal was put to a large basin having soft and non-smooth bottom (Width 90 cm×Length 130 cm×Height 30 cm); then body's balance states and moving states of hind-leg's coxalgic pelvis, knee joint, and ankle joint were observed when freely walking; then it was converted into a score based on Basso-Bresnahan-Beattie (BBB) locomotor rating scale (Basso et al., 1995); and then four researchers performed a blind technique. Substance P or saline was injected to a tail vein of rat, respectively at immediately, 1 d, 2 d after a spinal cord injury, using the same method as (1) of Example 1. And then, for the experimental group (10 rats/group) and the control (9 rats/group), an ethologic change due to a spinal cord injury was observed and estimated for different periods, such as after injuring, 1 week, 2 weeks, 3 weeks, 4 weeks, 5 weeks, […], and 6 weeks. A mean value of scores (BBB scores) observed by four researchers was taken, and the results thereof were statistically analyzed. The statistical analysis was performed in a method of two-way ANOVA with post hoc Tukey test.

Experiment [4] relates to TNF-α, IL-1β, IL-6, iNOS, IL-10 mRNA at spinal cord injury site. The experiment can be described thus: RT-PCR analysis of cytokine mRNA in injured spinal cord. The settings on record: 5 nmol/kg tail vein. As for the experimental part:
as §1
Substance P (marked by ‘SP’ in figures; hereinafter, the same as above) dissolved in saline of 5 nmol/kg concentration was injected through tail vein at immediately, 24 hours, and 48 hours after a spinal cord injury for experimental groups. At sham control group, same volume of saline (marked by ‘vehicle’ in figures; hereinafter, the same as above) without Substance P was injected at same time points. Operation were performed on an electric heating pad of 37° C., and then rat were transferred to cage after awake from the anesthetic. • (2) Preparation of Tissue
Substance P (5 nmol/kg in saline) or saline (the same volume without Substance P) was injected through tail vein at various time points at immediately, 1 d, 2d after operation as (1) of Example 1. At 1 hour, 6 hours, 1 day, 3 days, and 5 days, the experimental group (6 rats/group) and the control (6 rats/group) were sacrificed, respectively. After exposing a spinal cord by laminectomy, spin cord with a length of 1 cm, the injury site between T9-10 as the central, was quickly cut off, and immediately put into liquid nitrogen. Total RNA was extracted by using Trizol reagent (Invitrogen), and the cDNA was synthesized through Reverse transcription process. Then, PCR (Chromagen) was performed using primers of TNF-α IL-1β iNOS. Primer's sequences and PCR conditions were as follows.

Where [5] appears, read: 1 hour after spinal cord injury, vs control.

In the case of Substance P, the “IL-10 expression in cells” value in experiment [1] is recorded as “specifically expressed at a nerve cell”. Moreover, in experiment [2], the “level of IL-10 in peripheral blood” value was “no meaningful differences” and the “level of TNF-α in peripheral blood” value is recorded as “no meaningful differences”. In addition, the motor skill result in experiment [3] (from 14 days, vs control) is recorded as “meaningful improved”. Moreover, the motor skill entry in experiment [3] (from about 5 weeks, vs control) was “meaningfully recovered and improved”. In experiment [3] (from about one week after administrating, vs control), the “spinal cord nerve function” value was “beginning to recover”. Also, in experiment [3] (tail vein injection at immediately, 1 d, 2 d after injury, at 6 weeks, P<0.05 vs control), the BBB score came to 11.5±0.5. Also, in experiment [4] (setting [5]), the “expression of IL-1β mRNA” value was “slightly decreased”, the “expression of IL-6 mRNA” value was “slightly decreased”, the “expression of TNF-α mRNA” value was “slightly decreased” and the “expression of iNOS mRNA” value is listed as “slightly decreased”. Further, the “increase of expression of IL-10 mRNA” value in experiment [4] (6 hours after spinal cord injury, vs control) was “at least 17 times”. Further, in experiment [4] (one day after spinal cord injury), the “expression of iNOS” value is on record as “surely decreased”. Further, in experiment [4] (other times than 1 hour, between two groups), the “expressions of inflammatory cytokines (TNF-α, IL-1β, IL-6, iNOS mRNAs)” value is “do not have a difference”. Besides, the “expression of IL-10 mRNA” value in experiment [4] (up to 3 day after spinal cord injury, vs control) was “persist increasing level”.
